In US12679878B2, “CRF2 receptor agonists and their use in therapy” (SANOFI, priority 2020, dated 2026):
Starred links: 1 amine or outer side, 2 acyl side, 3 side chain; linkers in the order of their positions; H or OH if unused. Non-standard residues stand in square brackets, D forms with d. Residues, ends and D or L forms follow the SMILES beside them. Groups on a side chain read outwards from the residue. *: point of attachment. C18 diacid = O=C(O)CCCCCCCCCCCCCCCCC(=O)*; γGlu = O=C(O)[C@H](CCC(=O)[*:2])N[*:1]; Palmitoyl = CCCCCCCCCCCCCCCC(=O)*; AEEA = NCCOCCOCC(=O)O; Aib = CC(C)(N)C(=O)O

Experiments:
Type in all cases: cell-based
rat CRF2R α receptor = assay: cAMP agonism at rat CRF2R α receptor in A7R5 rat aortic smooth muscle cells (Example 8); conditions: cAMP HTRF, A7R5 rat aortic smooth muscle cell line, 0% HSA
In short: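 Thawed cryopreserved A7R5 cells in HBSS/20 mM HEPES (0 or 0.1% HSA) with 2 mM IBMX, 2000 cells/well, were exposed to compound for 30 min at room temperature. cAMP was read by HTRF (665/620 nm ratio) after 1 h with lysis reagents. Activity was normalised to 1000 nM urocortin 2 as 100%, and EC50 was taken as the concentration giving 50% of maximal activation.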

CRF1R receptor [1] = target: T1, CRF1R receptor (Homo sapiens, UniProt P34998); assay: cAMP activity at anti-target CRF1R, CHO-K1 cell line clone 2 (Example 19.10); conditions: 100% = Sauvagine at 100 nM; CRF1R CHO-K1 clone 2
T1 construct: host or cells: CHO-K1 clone 2
T1 sequence (P34998 24-415): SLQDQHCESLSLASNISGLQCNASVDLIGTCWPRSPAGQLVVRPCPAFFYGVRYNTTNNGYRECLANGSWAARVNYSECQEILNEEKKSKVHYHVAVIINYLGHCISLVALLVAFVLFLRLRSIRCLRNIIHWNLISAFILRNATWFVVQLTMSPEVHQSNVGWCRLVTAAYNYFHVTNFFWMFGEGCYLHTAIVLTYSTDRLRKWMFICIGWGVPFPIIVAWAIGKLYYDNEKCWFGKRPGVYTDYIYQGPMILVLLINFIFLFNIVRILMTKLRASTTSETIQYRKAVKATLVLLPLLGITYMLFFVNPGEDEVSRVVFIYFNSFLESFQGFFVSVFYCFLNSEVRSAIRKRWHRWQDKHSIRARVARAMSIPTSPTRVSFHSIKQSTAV
In short: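 A CRF1R-overexpressing CHO-K1 line (clone 2) was grown in F12/10% FBS/G418 and frozen in aliquots before use. The cAMP assay followed the preceding procedure, with 100% activation defined by Sauvagine at 100 nM.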

CRF1R receptor [2] = target: T1, CRF1R receptor; assay: cAMP activity at anti-target CRF1R, CRF1R-overexpression CHO cell line (Example 9); conditions: CRF1R-overexpression CHO cell line; read-out: Emax (%)
In short: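 cAMP accumulation was read by HTRF after 30 min at room temperature of compound treatment. Cells were cryopreserved CHO cells overexpressing CRF1R, plated at 2000/well in IBMX (2 mM)-containing HBSS/HEPES buffer with 0 or 0.1% HSA. Activity was normalized to 1000 nM UCN2 as 100%.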

Structure (SMILES) | EC50 (rat CRF2R α receptor) [nM] | Emax (CRF1R receptor [1]) [%] | Emax (CRF1R receptor [2]) [%]
CCCCCCCCCCCCCCCC(=O)N[C@@H](CCC(=O)NCCCC[C@H](NC(=O)[C@H](CC(C)C)NC(=O)[C@H](CCCCN)NC(=O)[C@@H](NC(=O)[C@@H]1CCCN1C(=O)[C@H](NC(=O)[C@H](CC(=O)O)NC(=O)[C@H](CC(C)C)NC(=O)[C@H](CO)NC(=O)[C@H](CC(C)C)NC(=O)[C@@H](NC(=O)[C@@H](N)[C@@H](C)CC)C(C)C)C(C)C)[C@@H](C)O)C(=O)N[C@@H](CCC(N)=O)C(=O)N[C@@H](CCCCN)C(=O)N[C@@H](CC(C)C)C(=O)N[C@@H](CC(C)C)C(=O)N[C@@H](CCCCN)C(=O)N[C@@H](CCC(N)=O)C(=O)N[C@@H](CCC(=O)O)C(=O)N[C@@H](CCCNC(=N)N)C(=O)N[C@@H](CCC(N)=O)C(=O)N[C@@H](CCCNC(=N)N)C(=O)N[C@@H](CCCCN)C(=O)N[C@@H](CCC(=O)O)C(=O)N[C@@H](CCCNC(=N)N)C(=O)N[C@@H](CCC(=O)O)C(=O)NC(C)(C)C(=O)N[C@@H](C)C(=O)N[C@@H](CCC(=O)O)C(=O)N[C@@H](CCCCN)C(=O)N[C@@H](CC(N)=O)C(=O)N[C@@H](CCCCN)C(=O)N[C@@H](CCCNC(=N)N)C(=O)N[C@H](C(=O)N[C@@H](CC(C)C)C(=O)N[C@@H](CCC(=O)O)C(=O)N[C@@H](CCCNC(=N)N)C(=O)N[C@H](C(N)=O)C(C)C)[C@@H](C)CC)C(=O)O [SEQ ID NO: 225, IVLSLDvPTKLK*QKLLKQERQRKEREAibAEKNKRILERV-NH2] (H-IVLSLD[dV]PTKLK([γGlu-Palmitoyl])QKLLKQERQRKERE[Aib]AEKNKRILERV-NH2; N-terminus assumed) | 0.12 | 58.9 | 
CCCCCCCCCCCCCCCC(=O)N[C@@H](CCC(=O)NCCCC[C@H](NC(=O)[C@H](CC(C)C)NC(=O)CNC(=O)[C@@H](NC(=O)[C@@H]1CCCN1C(=O)[C@H](NC(=O)[C@H](CC(=O)O)NC(=O)[C@H](CC(C)C)NC(=O)[C@H](CO)NC(=O)[C@H](CC(C)C)NC(=O)[C@@H](NC(=O)[C@@H](N)[C@@H](C)CC)C(C)C)C(C)C)[C@@H](C)CC)C(=O)N[C@@H](CCC(N)=O)C(=O)N[C@@H](CCCCN)C(=O)N[C@@H](CC(C)C)C(=O)N[C@@H](CC(C)C)C(=O)N[C@@H](CCCCN)C(=O)N[C@@H](CCC(N)=O)C(=O)N[C@@H](CCC(N)=O)C(=O)N[C@@H](CCCNC(=N)N)C(=O)N[C@@H](CCC(N)=O)C(=O)N[C@@H](CCCNC(=N)N)C(=O)N[C@@H](CCCCN)C(=O)N[C@@H](CCC(=O)O)C(=O)N[C@@H](CCCNC(=N)N)C(=O)N[C@@H](CCC(N)=O)C(=O)N[C@@H](CCC(N)=O)C(=O)N[C@@H](C)C(=O)N[C@@H](CCC(=O)O)C(=O)N[C@@H](CCCCN)C(=O)N[C@@H](CC(N)=O)C(=O)N[C@@H](CCCCN)C(=O)N[C@@H](CCCNC(=N)N)C(=O)N[C@H](C(=O)N[C@@H](CC(C)C)C(=O)N[C@@H](CCC(=O)O)C(=O)N[C@@H](CCCNC(=N)N)C(=O)N[C@H](C(N)=O)C(C)C)[C@@H](C)CC)C(=O)O [SEQ ID NO: 226] (H-IVLSLD[dV]PIGLK([γGlu-Palmitoyl])QKLLKQQRQRKERQQAEKNKRILERV-NH2; N-terminus assumed) | 0.04 | 84 | 
CC[C@H](C)[C@H](NC(C)=O)C(=O)N[C@H](C(=O)N[C@@H](CC(C)C)C(=O)N[C@@H](CO)C(=O)N[C@@H](CC(C)C)C(=O)N[C@@H](CC(=O)O)C(=O)N[C@@H](C(=O)N1CCC[C@H]1C(=O)N[C@H](C(=O)NCC(=O)N[C@@H](CC(C)C)C(=O)N[C@@H](CCCCNC(=O)COCCOCCNC(=O)COCCOCCNC(=O)CC[C@H](NC(=O)CCCCCCCCCCCCCCCCC(=O)O)C(=O)O)C(=O)N[C@@H](CCC(N)=O)C(=O)N[C@H](C(=O)N[C@@H](CC(C)C)C(=O)N[C@@H](CC(C)C)C(=O)N[C@@H](CCC(=O)O)C(=O)N[C@@H](CCC(N)=O)C(=O)N[C@@H](CCC(=O)O)C(=O)N[C@@H](CCCNC(=N)N)C(=O)N[C@@H](CCC(N)=O)C(=O)N[C@@H](CCCCN)C(=O)NC(C)(C)C(=O)N[C@@H](CCC(N)=O)C(=O)N[C@@H](CCCNC(=N)N)C(=O)N[C@@H](CCC(=O)O)C(=O)N[C@@H](CCC(N)=O)C(=O)N[C@@H](C)C(=O)N[C@@H](CCC(=O)O)C(=O)N[C@@H](CCCCN)C(=O)N[C@@H](CC(N)=O)C(=O)N[C@@H](CCCCN)C(=O)N[C@@H](CCC(N)=O)C(=O)N[C@H](C(=O)N[C@@H](CC(C)C)C(=O)N[C@@H](CCC(=O)O)C(=O)N[C@@H](CCC(N)=O)C(=O)N[C@H](C(N)=O)C(C)C)[C@@H](C)CC)[C@@H](C)CC)[C@@H](C)CC)C(C)C)C(C)C [compound 164] (Ac-IVLSLD[dV]PIGLK([AEEA-AEEA-γGlu-C18 diacid])QILLEQERQK[Aib]QREQAEKNKQILEQV-NH2) | 12.6 |  | 25.8
CC[C@H](C)[C@H](NC(C)=O)C(=O)N[C@H](C(=O)N[C@@H](CC(C)C)C(=O)N[C@@H](CO)C(=O)N[C@@H](CC(C)C)C(=O)N[C@@H](CC(=O)O)C(=O)N[C@@H](C(=O)N1CCC[C@H]1C(=O)N[C@H](C(=O)N[C@@H](CCCCN)C(=O)N[C@@H](CC(C)C)C(=O)N[C@@H](CCCCNC(=O)COCCOCCNC(=O)COCCOCCNC(=O)CC[C@H](NC(=O)CCCCCCCCCCCCCCCCC(=O)O)C(=O)O)C(=O)N[C@@H](CCC(N)=O)C(=O)N[C@H](C(=O)N[C@@H](CC(C)C)C(=O)N[C@@H](CC(C)C)C(=O)N[C@@H](CCC(=O)O)C(=O)N[C@@H](CCC(N)=O)C(=O)N[C@@H](C)C(=O)N[C@@H](CCCNC(=N)N)C(=O)N[C@@H](CCC(N)=O)C(=O)N[C@@H](CCCCN)C(=O)NC(C)(C)C(=O)N[C@@H](CCC(N)=O)C(=O)N[C@@H](CCCNC(=N)N)C(=O)N[C@@H](CCC(=O)O)C(=O)N[C@@H](CCC(N)=O)C(=O)N[C@@H](C)C(=O)N[C@@H](CCC(=O)O)C(=O)N[C@@H](CCCCN)C(=O)N[C@@H](CC(N)=O)C(=O)N[C@@H](CCC(=O)O)C(=O)N[C@@H](CCC(N)=O)C(=O)N[C@H](C(=O)N[C@@H](CC(C)C)C(=O)N[C@@H](CCC(=O)O)C(=O)N[C@@H](CCC(N)=O)C(=O)N[C@H](C(N)=O)C(C)C)[C@@H](C)CC)[C@@H](C)CC)[C@@H](C)CC)C(C)C)C(C)C [compound 165] (Ac-IVLSLD[dV]PIKLK([AEEA-AEEA-γGlu-C18 diacid])QILLEQARQK[Aib]QREQAEKNEQILEQV-NH2) | 2.41 |  | 26.9
CC[C@H](C)[C@H](NC(C)=O)C(=O)N[C@H](C(=O)N[C@@H](CC(C)C)C(=O)N[C@@H](CO)C(=O)N[C@@H](CC(C)C)C(=O)N[C@@H](CC(=O)O)C(=O)N[C@@H](C(=O)N1CCC[C@H]1C(=O)N[C@H](C(=O)N[C@@H](CCCCN)C(=O)N[C@@H](CC(C)C)C(=O)N[C@@H](CCCCNC(=O)COCCOCCNC(=O)COCCOCCNC(=O)CC[C@H](NC(=O)CCCCCCCCCCCCCCCCC(=O)O)C(=O)O)C(=O)N[C@@H](CCC(N)=O)C(=O)N[C@H](C(=O)N[C@@H](CC(C)C)C(=O)N[C@@H](CC(C)C)C(=O)N[C@@H](CCC(=O)O)C(=O)N[C@@H](CCC(N)=O)C(=O)N[C@@H](CCC(=O)O)C(=O)N[C@@H](CCCNC(=N)N)C(=O)N[C@@H](CCC(N)=O)C(=O)N[C@@H](CCCCN)C(=O)NC(C)(C)C(=O)N[C@@H](CCC(N)=O)C(=O)N[C@@H](CCCNC(=N)N)C(=O)N[C@@H](CCC(=O)O)C(=O)N[C@@H](CCC(N)=O)C(=O)N[C@@H](C)C(=O)N[C@@H](CCC(=O)O)C(=O)N[C@@H](CCCCN)C(=O)N[C@@H](CC(N)=O)C(=O)N[C@@H](CCC(=O)O)C(=O)N[C@@H](CCC(N)=O)C(=O)N[C@H](C(=O)N[C@@H](CC(C)C)C(=O)N[C@@H](CCC(=O)O)C(=O)N[C@@H](CCC(N)=O)C(=O)N[C@H](C(N)=O)C(C)C)[C@@H](C)CC)[C@@H](C)CC)[C@@H](C)CC)C(C)C)C(C)C [compound 166] (Ac-IVLSLD[dV]PIKLK([AEEA-AEEA-γGlu-C18 diacid])QILLEQERQK[Aib]QREQAEKNEQILEQV-NH2) | 9.99 |  | 5.94
